# Measurements from ChEMBL document CHEMBL1909046, “DrugMatrix in vitro pharmacology data”.
# Tests used:
# [1] = target: Voltage-gated inwardly rectifying potassium channel KCNH2 (Homo sapiens, UniProt Q12809)
# [2] = target: Cytochrome P450 2D6 (Homo sapiens, UniProt P10635)
# [3] = target: T1, Estrogen receptor (Homo sapiens, UniProt P03372); assay: biochemical
# T1 sequence (P03372 whole entry): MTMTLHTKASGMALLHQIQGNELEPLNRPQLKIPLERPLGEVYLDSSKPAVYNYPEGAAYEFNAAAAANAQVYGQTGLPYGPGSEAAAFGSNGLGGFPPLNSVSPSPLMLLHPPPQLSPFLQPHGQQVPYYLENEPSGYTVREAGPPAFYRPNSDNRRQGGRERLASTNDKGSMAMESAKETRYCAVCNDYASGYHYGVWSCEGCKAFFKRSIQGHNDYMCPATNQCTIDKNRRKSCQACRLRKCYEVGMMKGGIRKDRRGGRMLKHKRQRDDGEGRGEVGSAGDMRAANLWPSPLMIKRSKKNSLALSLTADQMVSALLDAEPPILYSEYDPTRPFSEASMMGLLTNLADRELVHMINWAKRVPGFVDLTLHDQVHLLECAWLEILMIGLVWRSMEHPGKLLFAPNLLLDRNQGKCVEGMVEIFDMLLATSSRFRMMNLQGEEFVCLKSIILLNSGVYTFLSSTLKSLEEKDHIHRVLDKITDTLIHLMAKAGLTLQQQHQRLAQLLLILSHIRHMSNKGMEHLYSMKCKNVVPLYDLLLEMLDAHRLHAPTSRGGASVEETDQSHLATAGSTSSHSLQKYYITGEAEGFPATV
# [4] = target: Cytochrome P450 3A4 (Homo sapiens, UniProt P08684)
# [5] = target: T2, Androgen receptor (Rattus norvegicus, UniProt P15207)
# T2 sequence (P15207 whole entry): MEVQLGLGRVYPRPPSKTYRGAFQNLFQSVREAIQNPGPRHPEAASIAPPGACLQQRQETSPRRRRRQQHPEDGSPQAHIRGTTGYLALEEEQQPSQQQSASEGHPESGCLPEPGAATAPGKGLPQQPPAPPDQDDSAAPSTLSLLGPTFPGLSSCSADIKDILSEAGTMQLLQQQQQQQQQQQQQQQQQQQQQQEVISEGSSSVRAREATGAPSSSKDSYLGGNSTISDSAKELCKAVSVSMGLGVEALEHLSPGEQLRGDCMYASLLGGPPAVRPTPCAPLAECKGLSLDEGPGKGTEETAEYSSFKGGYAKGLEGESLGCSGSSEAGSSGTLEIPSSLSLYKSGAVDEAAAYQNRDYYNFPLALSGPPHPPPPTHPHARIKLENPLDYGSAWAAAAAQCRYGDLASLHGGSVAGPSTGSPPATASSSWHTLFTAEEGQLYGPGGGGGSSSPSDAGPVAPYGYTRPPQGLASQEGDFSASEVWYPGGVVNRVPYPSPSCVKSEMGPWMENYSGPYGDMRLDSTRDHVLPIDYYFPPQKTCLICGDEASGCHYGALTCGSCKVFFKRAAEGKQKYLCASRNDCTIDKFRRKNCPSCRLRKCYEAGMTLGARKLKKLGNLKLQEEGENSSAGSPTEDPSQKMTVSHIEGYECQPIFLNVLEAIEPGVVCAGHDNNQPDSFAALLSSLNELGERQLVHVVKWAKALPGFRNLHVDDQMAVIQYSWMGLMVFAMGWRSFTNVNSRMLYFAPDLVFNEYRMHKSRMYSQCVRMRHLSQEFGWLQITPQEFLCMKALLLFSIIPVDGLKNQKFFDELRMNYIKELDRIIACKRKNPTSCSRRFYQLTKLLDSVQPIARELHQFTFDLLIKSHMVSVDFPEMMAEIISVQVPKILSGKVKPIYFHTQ
# [6] = target: T3, Glucocorticoid receptor (Homo sapiens, UniProt P04150); assay: biochemical
# T3 sequence (P04150 whole entry): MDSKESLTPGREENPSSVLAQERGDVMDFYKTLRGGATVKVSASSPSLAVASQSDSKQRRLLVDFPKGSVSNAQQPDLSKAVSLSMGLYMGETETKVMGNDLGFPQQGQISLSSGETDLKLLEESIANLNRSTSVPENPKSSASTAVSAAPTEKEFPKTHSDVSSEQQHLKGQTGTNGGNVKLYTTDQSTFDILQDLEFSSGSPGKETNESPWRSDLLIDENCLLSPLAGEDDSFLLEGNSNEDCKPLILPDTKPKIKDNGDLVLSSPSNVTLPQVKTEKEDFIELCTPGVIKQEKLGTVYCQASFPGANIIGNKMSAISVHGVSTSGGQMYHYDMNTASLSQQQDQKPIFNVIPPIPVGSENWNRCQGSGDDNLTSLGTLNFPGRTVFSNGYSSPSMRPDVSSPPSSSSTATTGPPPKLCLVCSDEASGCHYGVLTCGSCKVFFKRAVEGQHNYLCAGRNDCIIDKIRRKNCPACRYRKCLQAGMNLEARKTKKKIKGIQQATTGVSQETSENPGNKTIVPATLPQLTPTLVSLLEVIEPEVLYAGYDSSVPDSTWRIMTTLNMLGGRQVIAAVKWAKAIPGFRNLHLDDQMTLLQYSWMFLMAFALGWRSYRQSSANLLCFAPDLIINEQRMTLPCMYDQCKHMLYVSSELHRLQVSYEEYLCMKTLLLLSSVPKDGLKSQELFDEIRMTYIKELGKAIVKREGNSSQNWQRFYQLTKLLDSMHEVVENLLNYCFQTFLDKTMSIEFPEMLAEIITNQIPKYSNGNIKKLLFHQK
# Chain of Cytochrome P450 2D6 (P10635 whole entry): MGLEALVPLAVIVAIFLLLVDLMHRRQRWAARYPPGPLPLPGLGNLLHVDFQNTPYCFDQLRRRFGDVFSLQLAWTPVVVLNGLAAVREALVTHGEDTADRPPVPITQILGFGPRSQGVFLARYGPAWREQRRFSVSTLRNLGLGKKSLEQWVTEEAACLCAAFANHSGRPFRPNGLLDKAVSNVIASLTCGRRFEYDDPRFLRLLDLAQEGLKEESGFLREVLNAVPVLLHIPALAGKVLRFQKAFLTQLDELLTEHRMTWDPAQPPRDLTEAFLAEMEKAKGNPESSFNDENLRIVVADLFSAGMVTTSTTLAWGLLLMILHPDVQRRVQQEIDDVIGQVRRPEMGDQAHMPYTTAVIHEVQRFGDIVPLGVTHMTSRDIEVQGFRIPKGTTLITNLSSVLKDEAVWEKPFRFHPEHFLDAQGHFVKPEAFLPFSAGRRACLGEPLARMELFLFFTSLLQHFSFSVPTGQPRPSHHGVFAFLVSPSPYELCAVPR
# Chain of Voltage-gated inwardly rectifying potassium channel KCNH2 (Q12809 whole entry): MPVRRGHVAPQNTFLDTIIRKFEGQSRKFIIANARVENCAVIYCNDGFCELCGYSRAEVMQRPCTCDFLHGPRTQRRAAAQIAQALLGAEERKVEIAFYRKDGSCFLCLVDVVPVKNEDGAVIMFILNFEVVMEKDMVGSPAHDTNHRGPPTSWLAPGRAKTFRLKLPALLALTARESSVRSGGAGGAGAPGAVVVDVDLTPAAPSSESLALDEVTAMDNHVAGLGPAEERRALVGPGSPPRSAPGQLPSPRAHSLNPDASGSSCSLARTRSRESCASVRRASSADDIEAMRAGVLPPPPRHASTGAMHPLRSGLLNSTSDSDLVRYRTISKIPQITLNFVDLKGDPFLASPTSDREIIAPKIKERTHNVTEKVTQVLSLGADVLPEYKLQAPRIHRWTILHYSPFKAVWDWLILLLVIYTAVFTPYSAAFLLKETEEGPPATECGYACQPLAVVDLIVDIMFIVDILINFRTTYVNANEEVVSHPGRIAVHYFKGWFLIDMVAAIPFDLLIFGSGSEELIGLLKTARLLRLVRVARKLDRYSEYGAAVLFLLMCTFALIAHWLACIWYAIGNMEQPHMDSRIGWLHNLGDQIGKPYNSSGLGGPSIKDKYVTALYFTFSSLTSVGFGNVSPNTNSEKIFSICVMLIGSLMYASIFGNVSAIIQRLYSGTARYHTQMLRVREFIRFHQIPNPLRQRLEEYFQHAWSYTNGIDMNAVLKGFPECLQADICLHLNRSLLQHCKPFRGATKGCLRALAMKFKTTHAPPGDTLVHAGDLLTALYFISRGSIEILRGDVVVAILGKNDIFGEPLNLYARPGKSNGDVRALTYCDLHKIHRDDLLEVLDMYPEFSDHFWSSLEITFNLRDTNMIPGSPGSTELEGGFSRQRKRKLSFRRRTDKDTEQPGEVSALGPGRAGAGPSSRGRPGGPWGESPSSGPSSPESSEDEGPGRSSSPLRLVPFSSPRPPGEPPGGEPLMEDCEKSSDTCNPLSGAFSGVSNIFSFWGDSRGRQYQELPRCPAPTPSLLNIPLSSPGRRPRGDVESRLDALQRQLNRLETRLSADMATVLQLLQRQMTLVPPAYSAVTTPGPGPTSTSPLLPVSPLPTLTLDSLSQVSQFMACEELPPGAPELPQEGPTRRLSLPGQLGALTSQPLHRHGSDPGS
# Chain of Cytochrome P450 3A4 (P08684 whole entry): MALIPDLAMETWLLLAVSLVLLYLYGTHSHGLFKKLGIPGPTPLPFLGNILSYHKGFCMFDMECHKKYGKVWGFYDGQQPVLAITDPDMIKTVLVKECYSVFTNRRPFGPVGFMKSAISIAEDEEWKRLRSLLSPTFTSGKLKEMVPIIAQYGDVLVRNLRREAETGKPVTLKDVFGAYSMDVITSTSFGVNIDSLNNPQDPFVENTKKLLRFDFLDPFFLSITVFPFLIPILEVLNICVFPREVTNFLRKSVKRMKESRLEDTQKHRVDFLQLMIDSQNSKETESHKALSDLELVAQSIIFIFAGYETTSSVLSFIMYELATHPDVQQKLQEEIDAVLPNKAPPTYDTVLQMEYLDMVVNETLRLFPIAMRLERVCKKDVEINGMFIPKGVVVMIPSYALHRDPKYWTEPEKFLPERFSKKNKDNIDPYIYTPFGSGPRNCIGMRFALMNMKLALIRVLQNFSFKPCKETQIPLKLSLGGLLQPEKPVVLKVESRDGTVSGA
smiles,measurement,setting,value
Cc1cc2c(s1)Nc1ccccc1N=C2N1CCN(C)CC1 [OLANZAPINE],IC50,[1],100 µM
Nc1nc(N)c2nc(-c3ccccc3)c(N)nc2n1,IC50,[2],10 µM
C#C[C@]1(O)CC[C@H]2[C@@H]3[C@H](C)CC4=C(CCC(=O)C4)[C@H]3CC[C@@]21C [TIBOLONE],IC50,[3],0.433 µM
same,Ki,[3],0.124 µM
CC[C@H](C)[C@@H](CO[C@@H](Cc1ccccc1)C(=O)N[C@@H](CCS(C)(=O)=O)C(=O)OC(C)C)NC[C@@H](N)CS,IC50,[2],0.7 µM
same,IC50,[4],3 µM
CCN(CC)CCNC(=O)c1cc(Cl)c(N)cc1OC [METOCLOPRAMIDE],IC50,[2],0.8 µM
CCOC(=O)C1=C(C)NC(C)=C(C(=O)OCC)C1c1ccccc1/C=C/C(=O)OC(C)(C)C [LACIDIPINE],IC50,[5],3.92 µM
same,Ki,[5],2.61 µM
CC(=O)O[C@]1(C(C)=O)CC[C@H]2[C@@H]3C[C@H](C)C4=CC(=O)CC[C@]4(C)[C@H]3CC[C@@]21C [MEDROXYPROGESTERONE ACETATE],IC50,[6],0.019 µM
same,Ki,[6],0.00864 µM
